Experimental data as given in patent US20260137687A1, “GTPase INHIBITORS AND USES THEREOF” (The Regents of The University of California, priority 2022, published 2026).

Experiments:
[1] = Stability in aqueous buffers; assay type: physicochemical; settings: over a range of pH
K-Ras Q61K = K-Ras Q61K (Homo sapiens, UniProt P01116, Q61K); experiment: Intact protein mass spectrometry, covalent modification; assay type: binding; settings: extended incubation at pH 7.5; 50 μM, 16 h
Procedure: (§1) Purified K-Ras variants (4 μM final) were incubated with compounds at 50 or 100 μM (1% v/v DMSO final) in 20 mM HEPES pH 7.5, 150 mM NaCl, 1 mM MgCl2 in a total volume of 150 μL. After the noted time, the samples were analyzed by intact protein LC/MS using a Waters Xevo G2-XS system equipped with an Acquity UPLC BEH C4 1.7 μm column. The mobile phase was a linear gradient of 5-95% acetonitrile/water+0.05% formic acid. The spectra were processed using QuantLynx, giving the ion counts observed for the most abundant species. For assays conducted under an alternate pH, the HEPES buffer was replaced with one of the following buffers (maintaining 150 mM NaCl and 1 mM MgCl2): 20 mM MES pH 6 or 20 mM Tris pH 9.

wildtype (WT) K-Ras·GDP = molecular target: T1, wildtype (WT) K-Ras·GDP (Homo sapiens, UniProt P01116); experiment: as above; assay type: binding; settings: extended incubation at pH 7.5; 50 μM
T1 construct: human K-Ras (wildtype, aa 1-169); 6xHis tag + TEV cleavage site (N, cleaved yes); made in house; host or cells: E. coli BL21(DE3)
Procedure: as §1

K-Ras(G12R)·GDP = molecular target: T2, K-Ras(G12R)·GDP (Homo sapiens, UniProt P01116, G12R); experiment: as above; assay type: binding; settings: for reaction rate with K-Ras(G12R)·GDP: 50 μM
T2 construct: human K-Ras (G12R, aa 1-169); 6xHis tag + TEV cleavage site (N, cleaved yes); made in house; host or cells: E. coli BL21(DE3)
Procedure: as §1

K-Ras G12V = K-Ras G12V (Homo sapiens, UniProt P01116, G12V); experiment: as above; assay type: binding; settings: extended incubation at pH 7.5; 50 μM, 16 h
Procedure: as §1

K-Ras(G12R)·GppNHp = molecular target: T3, K-Ras(G12R)·GppNHp (Homo sapiens, UniProt P01116, C118S/C51S/C80L/G12R); experiment: as above; assay type: binding; settings: after 72 h; 50 μM
T3 construct: human K-Ras G12R Cyslight (G12R/C51S/C80L/C118S, aa 1-169); 6xHis tag + TEV cleavage site (N, cleaved yes); made in house; host or cells: E. coli BL21(DE3)
Procedure: as §1

K-Ras Q61R = K-Ras Q61R (Homo sapiens, UniProt P01116, Q61R); experiment: as above; assay type: binding; settings: extended incubation at pH 7.5; 50 μM, 16 h
Procedure: as §1

K-Ras Q61L = K-Ras Q61L (Homo sapiens, UniProt P01116, Q61L); experiment: as above; assay type: binding; settings: extended incubation at pH 7.5; 50 μM, 16 h
Procedure: as §1

K-Ras G12D = K-Ras G12D (Homo sapiens, UniProt P01116, G12D); experiment: as above; assay type: binding; settings: extended incubation at pH 7.5; 50 μM, 16 h
Procedure: as §1

CC(=O)C(O)(O)C(=O)N1[C@@H]2CC[C@H]1CN(c1nc(OCC34CCCN3CCC4)nc3c(F)c(-c4cccc5cccc(Cl)c45)ncc13)C2 [compound 3, 1-((1R,5S)-3-(7-(8-chloronaphthalen-1-yl)-8-fluoro-2-((tetrahydro-1H-pyrrolizin-7a(5H)-yl)methoxy)pyrido[4,3-d]pyrimidin-4-yl)-3,8-diazabicyclo[3.2.1]octan-8-yl)-2,2-dihydroxybutane-1,3-dione]
stability in aqueous buffers [1]: stable
covalent modification of K-Ras Q61K (K-Ras Q61K): did not modify
covalent modification of wildtype K-Ras·GDP (wildtype (WT) K-Ras·GDP): did not modify
modification of surface exposed arginines of K-Ras (K-Ras(G12R)·GDP): not modified
covalent adduct formation with recombinant K-Ras(G12R)·GDP (K-Ras(G12R)·GDP; 100 μM compound, pH 7.5, 23° C., adducts +656 Da and +638 Da): stoichiometric covalent adduct
reaction rate with K-Ras(G12R)·GDP (K-Ras(G12R)·GDP; pH 6): greatly reduced rate
reaction rate with K-Ras(G12R)·GDP (K-Ras(G12R)·GDP; pH 8): reached maximum
reaction rate with K-Ras(G12R)·GDP (K-Ras(G12R)·GDP; pH 9): did not further increase
reversibility of adduct formation (K-Ras(G12R)·GDP; purified adduct incubated at pH 7.5 for 7 days at 23° C.): irreversible
covalent modification of K-Ras G12V (K-Ras G12V): did not modify
modification of K-Ras(G12R)·GppNHp (K-Ras(G12R)·GppNHp): < 5%
covalent modification of K-Ras Q61R (K-Ras Q61R): did not modify
covalent modification of K-Ras Q61L (K-Ras Q61L): did not modify
covalent modification of K-Ras G12D (K-Ras G12D): did not modify
